Activity calls are given as the source filed them. The calls are words filed in the database; no cut-off is given here.
Legend:
[1] = Tmax in ICR (CD-1) mouse at 10 mg/kg, po; format: ADME, organism-based; conditions: in vivo
[2] = molecular target: Protein polybromo-1 (Homo sapiens) (UniProt Q86U86); assay: Inhibition of human partial length PBRM1 bromodomain 5 (S645 to D766 residues) expressed in Escherichia coli BL21 assessed as residual activity at 1 uM after 1 hr by qPCR method relative to control
[3] = AUC (0 to infinity) in ICR (CD-1) mouse at 10 mg/kg, po; format: ADME, organism-based; set-up: dose 10 mg/kg, time infinity, route oral; conditions: in vivo
[4] = AUC (0 to t) in ICR (CD-1) mouse at 10 mg/kg, po; format: ADME, organism-based; conditions: in vivo
[5] = molecular target: Protein polybromo-1 (Homo sapiens) (UniProt Q86U86); assay: Inhibition of human partial length PBRM1 bromodomain 2 (S178 to E291 residues) expressed in Escherichia coli BL21 assessed as residual activity at 1 uM after 1 hr by qPCR method relative to control
[6] = molecular target: ATPase family AAA domain-containing protein 2 (Homo sapiens) (UniProt Q6PL18); assay: Inhibition of human partial length ATAD2A (Q981 to R1108 residues) expressed in Escherichia coli BL21 assessed as residual activity at 1 uM after 1 hr by qPCR method relative to control
[7] = molecular target: Bromodomain-containing protein 7 (Homo sapiens) (UniProt Q9NPI1); assay: Inhibition of human partial length BRD7 (L125 to R254 residues) expressed in mammalian expression system assessed as residual activity at 1 uM after 1 hr by qPCR method relative to control
[8] = molecular target: Nucleosome-remodeling factor subunit BPTF (Homo sapiens) (UniProt Q12830); assay: Inhibition of human partial length FALZ (S2791 to H2911 residues) expressed in Escherichia coli BL21 assessed as residual activity at 1 uM after 1 hr by qPCR method relative to control
[9] = molecular target: Bromodomain-containing protein 2 (Homo sapiens) (UniProt P25440); assay: Inhibition of human partial length BRD2 bromodomain 2 isoform 1 (E348 to D455 residues) expressed in Escherichia coli BL21 assessed as residual activity at 1 uM after 1 hr by qPCR method relative to control
[10] = Cmax in ICR (CD-1) mouse at 10 mg/kg, po; format: ADME, organism-based; set-up: dose 10 mg/kg, route oral; conditions: in vivo
[11] = molecular target: Histone acetyltransferase KAT2A (Homo sapiens) (UniProt Q92830); assay: Inhibition of human partial length GCN5L2 (E726 to K837 residues) expressed in Escherichia coli BL21 assessed as residual activity at 1 uM after 1 hr by qPCR method relative to control
[12] = molecular target: Histone acetyltransferase p300 (Homo sapiens) (UniProt Q09472); assay: Inhibition of human partial length EP300 (A1040 to G1161 residues) expressed in Escherichia coli BL21 assessed as residual activity at 1 uM after 1 hr by qPCR method relative to control
[13] = molecular target: CREB-binding protein (Homo sapiens) (UniProt Q92793); assay: Inhibition of human partial length CREBBP (R1081 to G1197 residues) expressed in Escherichia coli BL21 assessed as residual activity at 1 uM after 1 hr by qPCR method relative to control
[14] = molecular target: Bromodomain testis-specific protein (Homo sapiens) (UniProt Q58F21); assay: Inhibition of human partial length BRDT bromodomain 1 (N21 to E137 residues) expressed in Escherichia coli BL21 assessed as residual activity at 1 uM after 1 hr by qPCR method relative to control
[15] = molecular target: T1, Bromodomain-containing protein 4 (Homo sapiens, UniProt O60885); assay: Inhibition of BRD4 in human TY82 cells assessed as downregulation of c-Myc mRNA expression after 24 hrs by RT-qPCR method; format: cell-based
[16] = molecular target: T1, Bromodomain-containing protein 4; assay: Inhibition of human partial length BRD4 bromodomain 2 long isoform (K333 to E460 residues) expressed in Escherichia coli BL21 assessed as residual activity at 1 uM after 1 hr by qPCR method relative to control
[17] = molecular target: Transcription intermediary factor 1-alpha (Homo sapiens) (UniProt O15164); assay: Inhibition of human partial length TRIM24 (P790 to P977 residues) expressed in Escherichia coli BL21 assessed as residual activity at 1 uM after 1 hr by qPCR method relative to control
[18] = molecular target: T1, Bromodomain-containing protein 4; assay: Inhibition of BRD4 in human TY82 cells assessed as downregulation of c-Myc protein expression at 0.2 to 1 uM after 24 hrs by Western blot method; format: cell-based
[19] = molecular target: Chromatin remodeling regulator CECR2 (Homo sapiens) (UniProt Q9BXF3); assay: Inhibition of human partial length CECR2 (P423 to D543 residues) expressed in Escherichia coli BL21 assessed as residual activity at 1 uM after 1 hr by qPCR method relative to control
[20] = molecular target: T1, Bromodomain-containing protein 4; assay: Inhibition of BRD4 in human TY82 cells assessed as downregulation of c-Myc mRNA expression at 1 uM after 24 hrs by RT-qPCR method relative to control; format: cell-based
[21] = molecular target: Bromodomain-containing protein 2 (Homo sapiens) (UniProt P25440); assay: Inhibition of human partial length BRD2 bromodomain 1 long isoform (K71 to N194 residues) expressed in Escherichia coli BL21 assessed as residual activity at 1 uM after 1 hr by qPCR method relative to control
[22] = molecular target: E3 ubiquitin-protein ligase TRIM33 (Homo sapiens) (UniProt Q9UPN9); assay: Inhibition of human partial length TRIM33 (D882 to A1087 residues) expressed in Escherichia coli BL21 assessed as residual activity at 1 uM after 1 hr by qPCR method relative to control
[23] = molecular target: Bromodomain adjacent to zinc finger domain protein 2A (Homo sapiens) (UniProt Q9UIF9); assay: Inhibition of human partial length BAZ2A (M1792 to L1905 residues) expressed in Escherichia coli BL21 assessed as residual activity at 1 uM after 1 hr by qPCR method relative to control
[24] = molecular target: Bromodomain and PHD finger-containing protein 3 (Homo sapiens) (UniProt Q9ULD4); assay: Inhibition of human partial length BRPF3 (E588 to G701 residues) expressed in Escherichia coli BL21 assessed as residual activity at 1 uM after 1 hr by qPCR method relative to control
[25] = molecular target: Bromodomain testis-specific protein (Homo sapiens) (UniProt Q58F21); assay: Inhibition of human partial length BRDT bromodomain 2 (K250 to E382 residues) expressed in Escherichia coli BL21 assessed as residual activity at 1 uM after 1 hr by qPCR method relative to control
[26] = molecular target: Transcription initiation factor TFIID subunit 1-like (Homo sapiens) (UniProt Q8IZX4); assay: Inhibition of human partial length TAF1L bromodomain 2 (Q1523 to D1654 residues) expressed in Escherichia coli BL21 assessed as residual activity at 1 uM after 1 hr by qPCR method relative to control
[27] = molecular target: Transcription initiation factor TFIID subunit 1 (Homo sapiens) (UniProt P21675); assay: Inhibition of human partial length TAF1 bromodomain 2 (D1521 to D1656 residues) expressed in Escherichia coli BL21 assessed as residual activity at 1 uM after 1 hr by qPCR method relative to control
Transcription initiation factor TFIID subunit 1 (Homo sapiens), sequence (P21675 whole entry, the tested form may be a part): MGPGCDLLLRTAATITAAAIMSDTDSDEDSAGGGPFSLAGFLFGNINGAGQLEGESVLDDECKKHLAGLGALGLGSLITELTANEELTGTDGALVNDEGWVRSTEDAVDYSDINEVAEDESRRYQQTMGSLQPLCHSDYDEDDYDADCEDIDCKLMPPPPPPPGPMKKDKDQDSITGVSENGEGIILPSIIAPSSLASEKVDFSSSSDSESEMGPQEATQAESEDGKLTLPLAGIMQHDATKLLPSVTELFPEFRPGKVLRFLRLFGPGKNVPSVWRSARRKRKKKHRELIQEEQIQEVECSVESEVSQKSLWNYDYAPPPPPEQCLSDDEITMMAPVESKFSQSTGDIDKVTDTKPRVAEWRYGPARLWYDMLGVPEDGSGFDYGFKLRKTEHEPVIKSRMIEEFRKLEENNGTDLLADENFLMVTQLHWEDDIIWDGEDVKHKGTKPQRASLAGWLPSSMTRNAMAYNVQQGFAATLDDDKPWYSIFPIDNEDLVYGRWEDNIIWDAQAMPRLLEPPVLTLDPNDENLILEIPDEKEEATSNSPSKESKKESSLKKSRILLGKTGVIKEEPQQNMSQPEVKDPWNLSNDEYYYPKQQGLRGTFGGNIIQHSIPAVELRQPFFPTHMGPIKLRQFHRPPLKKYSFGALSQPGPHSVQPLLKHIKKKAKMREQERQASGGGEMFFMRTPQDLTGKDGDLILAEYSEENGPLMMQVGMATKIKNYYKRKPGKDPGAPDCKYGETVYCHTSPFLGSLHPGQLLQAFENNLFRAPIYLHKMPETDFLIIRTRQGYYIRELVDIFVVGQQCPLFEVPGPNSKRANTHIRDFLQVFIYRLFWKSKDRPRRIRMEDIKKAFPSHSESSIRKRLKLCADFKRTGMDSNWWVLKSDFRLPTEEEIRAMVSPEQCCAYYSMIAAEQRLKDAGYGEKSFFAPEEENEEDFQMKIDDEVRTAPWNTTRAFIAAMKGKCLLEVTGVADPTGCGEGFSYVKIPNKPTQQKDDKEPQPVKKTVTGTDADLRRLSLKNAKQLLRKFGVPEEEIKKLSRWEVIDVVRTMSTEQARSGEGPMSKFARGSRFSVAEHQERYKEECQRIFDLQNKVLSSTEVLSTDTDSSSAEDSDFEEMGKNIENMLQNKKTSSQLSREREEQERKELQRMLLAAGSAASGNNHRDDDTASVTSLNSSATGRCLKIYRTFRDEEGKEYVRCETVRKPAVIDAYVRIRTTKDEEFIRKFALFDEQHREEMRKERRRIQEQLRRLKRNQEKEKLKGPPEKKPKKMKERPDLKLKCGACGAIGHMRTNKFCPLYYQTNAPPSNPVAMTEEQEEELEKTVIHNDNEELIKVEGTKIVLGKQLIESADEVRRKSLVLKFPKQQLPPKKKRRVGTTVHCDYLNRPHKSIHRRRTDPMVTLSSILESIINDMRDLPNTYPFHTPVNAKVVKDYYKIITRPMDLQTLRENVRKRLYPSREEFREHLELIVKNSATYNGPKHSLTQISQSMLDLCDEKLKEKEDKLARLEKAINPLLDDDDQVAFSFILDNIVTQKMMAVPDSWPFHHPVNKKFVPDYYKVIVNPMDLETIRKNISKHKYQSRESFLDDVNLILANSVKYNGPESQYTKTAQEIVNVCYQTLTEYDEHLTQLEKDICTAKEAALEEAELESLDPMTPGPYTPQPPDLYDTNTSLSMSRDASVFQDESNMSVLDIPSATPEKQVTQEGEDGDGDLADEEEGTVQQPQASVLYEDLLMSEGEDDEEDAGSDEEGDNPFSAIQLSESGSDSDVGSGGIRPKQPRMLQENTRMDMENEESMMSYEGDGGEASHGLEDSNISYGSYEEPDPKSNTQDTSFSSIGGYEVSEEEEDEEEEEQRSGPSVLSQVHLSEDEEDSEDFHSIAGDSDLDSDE

Bromodomain-containing protein 2 (Homo sapiens), sequence (P25440 whole entry, looked up, the tested form may be a part, canonical isoform): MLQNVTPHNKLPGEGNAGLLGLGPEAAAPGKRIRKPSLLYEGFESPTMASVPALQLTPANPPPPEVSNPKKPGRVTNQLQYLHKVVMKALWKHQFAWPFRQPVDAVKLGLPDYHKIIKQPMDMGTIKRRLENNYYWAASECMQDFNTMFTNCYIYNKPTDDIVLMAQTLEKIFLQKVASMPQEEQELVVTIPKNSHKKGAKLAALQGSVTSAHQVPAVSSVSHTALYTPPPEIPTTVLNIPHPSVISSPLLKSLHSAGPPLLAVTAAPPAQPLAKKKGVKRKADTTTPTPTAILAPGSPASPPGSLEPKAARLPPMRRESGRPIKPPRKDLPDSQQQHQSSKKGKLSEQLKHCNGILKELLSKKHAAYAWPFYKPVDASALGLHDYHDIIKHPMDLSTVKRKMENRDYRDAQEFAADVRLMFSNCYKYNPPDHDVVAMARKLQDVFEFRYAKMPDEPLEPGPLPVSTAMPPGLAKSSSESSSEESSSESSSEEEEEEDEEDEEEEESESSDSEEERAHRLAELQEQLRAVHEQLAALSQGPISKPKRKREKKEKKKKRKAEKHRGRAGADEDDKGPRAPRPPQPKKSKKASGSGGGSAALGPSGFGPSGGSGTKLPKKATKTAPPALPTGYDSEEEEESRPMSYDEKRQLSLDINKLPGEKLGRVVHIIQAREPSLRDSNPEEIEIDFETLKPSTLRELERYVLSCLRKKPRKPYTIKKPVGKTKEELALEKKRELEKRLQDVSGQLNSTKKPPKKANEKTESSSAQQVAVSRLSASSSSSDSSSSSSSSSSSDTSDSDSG
Protein polybromo-1 (Homo sapiens), sequence (Q86U86 whole entry, the tested form may be a part): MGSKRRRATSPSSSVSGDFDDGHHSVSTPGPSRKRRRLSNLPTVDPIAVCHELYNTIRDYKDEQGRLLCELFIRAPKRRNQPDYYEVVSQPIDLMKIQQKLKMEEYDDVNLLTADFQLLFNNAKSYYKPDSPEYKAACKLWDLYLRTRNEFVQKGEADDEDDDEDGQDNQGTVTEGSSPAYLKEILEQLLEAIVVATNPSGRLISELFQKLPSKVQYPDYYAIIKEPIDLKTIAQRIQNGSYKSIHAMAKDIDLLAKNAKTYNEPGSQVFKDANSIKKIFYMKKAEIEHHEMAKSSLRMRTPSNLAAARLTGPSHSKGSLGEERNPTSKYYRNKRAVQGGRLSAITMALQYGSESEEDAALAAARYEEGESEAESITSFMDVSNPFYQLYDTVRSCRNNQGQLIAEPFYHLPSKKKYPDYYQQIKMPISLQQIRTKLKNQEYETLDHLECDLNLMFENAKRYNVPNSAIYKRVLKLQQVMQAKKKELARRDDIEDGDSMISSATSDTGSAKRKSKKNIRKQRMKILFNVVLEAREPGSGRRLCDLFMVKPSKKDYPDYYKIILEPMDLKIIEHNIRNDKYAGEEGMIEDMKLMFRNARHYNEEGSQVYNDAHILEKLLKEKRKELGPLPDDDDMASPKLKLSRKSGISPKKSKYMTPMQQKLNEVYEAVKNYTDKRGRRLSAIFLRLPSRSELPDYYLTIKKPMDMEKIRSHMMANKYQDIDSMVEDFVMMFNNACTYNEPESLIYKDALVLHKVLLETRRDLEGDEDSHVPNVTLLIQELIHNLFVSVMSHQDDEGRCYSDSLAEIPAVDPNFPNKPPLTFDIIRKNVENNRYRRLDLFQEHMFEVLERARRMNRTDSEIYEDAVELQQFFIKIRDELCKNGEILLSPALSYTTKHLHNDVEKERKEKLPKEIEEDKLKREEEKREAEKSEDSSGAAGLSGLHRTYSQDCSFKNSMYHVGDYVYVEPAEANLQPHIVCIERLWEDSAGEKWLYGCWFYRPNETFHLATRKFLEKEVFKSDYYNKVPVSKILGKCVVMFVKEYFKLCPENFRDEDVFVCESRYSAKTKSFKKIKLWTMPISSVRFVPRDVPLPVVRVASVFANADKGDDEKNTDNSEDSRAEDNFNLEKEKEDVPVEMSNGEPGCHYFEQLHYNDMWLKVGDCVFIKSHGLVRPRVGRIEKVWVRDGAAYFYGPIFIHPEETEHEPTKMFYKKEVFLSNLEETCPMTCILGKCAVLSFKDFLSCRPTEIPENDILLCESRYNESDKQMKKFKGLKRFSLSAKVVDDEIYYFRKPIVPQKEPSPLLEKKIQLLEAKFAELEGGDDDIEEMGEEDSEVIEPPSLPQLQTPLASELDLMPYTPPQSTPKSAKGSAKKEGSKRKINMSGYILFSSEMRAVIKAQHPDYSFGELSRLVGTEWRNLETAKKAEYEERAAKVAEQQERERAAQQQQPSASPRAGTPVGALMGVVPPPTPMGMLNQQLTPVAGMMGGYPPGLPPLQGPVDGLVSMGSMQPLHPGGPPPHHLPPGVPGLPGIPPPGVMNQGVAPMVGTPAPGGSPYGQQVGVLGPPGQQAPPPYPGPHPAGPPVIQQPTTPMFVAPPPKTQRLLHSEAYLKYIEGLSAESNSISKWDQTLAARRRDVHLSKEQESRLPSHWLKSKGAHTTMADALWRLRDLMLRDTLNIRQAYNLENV
Bromodomain-containing protein 7 (Homo sapiens), sequence (Q9NPI1 whole entry, the tested form may be a part): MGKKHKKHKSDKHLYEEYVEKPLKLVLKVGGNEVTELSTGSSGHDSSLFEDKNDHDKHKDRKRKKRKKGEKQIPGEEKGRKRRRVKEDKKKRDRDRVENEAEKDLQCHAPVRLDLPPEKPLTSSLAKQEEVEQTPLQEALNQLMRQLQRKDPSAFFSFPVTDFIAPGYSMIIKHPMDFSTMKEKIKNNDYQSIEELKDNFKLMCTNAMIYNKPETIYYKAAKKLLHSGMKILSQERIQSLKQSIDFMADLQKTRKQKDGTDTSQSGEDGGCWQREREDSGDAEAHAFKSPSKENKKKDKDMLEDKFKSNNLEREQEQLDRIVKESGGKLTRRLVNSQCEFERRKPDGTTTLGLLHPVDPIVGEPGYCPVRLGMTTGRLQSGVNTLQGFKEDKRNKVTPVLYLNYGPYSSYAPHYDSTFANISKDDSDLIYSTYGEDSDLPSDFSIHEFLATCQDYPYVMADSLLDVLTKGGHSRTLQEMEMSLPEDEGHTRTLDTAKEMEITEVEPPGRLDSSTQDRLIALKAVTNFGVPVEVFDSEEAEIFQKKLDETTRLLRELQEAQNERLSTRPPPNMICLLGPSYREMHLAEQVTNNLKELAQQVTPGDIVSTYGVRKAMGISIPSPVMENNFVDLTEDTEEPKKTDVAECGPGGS

- Tmax [1]: 19.8 min
- Activity [2]: 94%
- AUC(0-inf) [3]: 1690 ng·h/mL
- AUC(0-t) [4]: 1680 ng·h/mL
- Activity [5]: 100%
- Activity [6]: 100%
- Activity [7]: 97%
- Activity [8]: 96%
- Activity [9]: 0%
- Cmax [10]: 869 ng/mL
- Activity [11]: 63%
- Activity [12]: 47%
- Activity [13]: 67%
- Activity [14]: 3.1%
- inhibition [15]: Dose-dependent effect
- Activity [16]: 0.05%
- Activity [17]: 80%
- inhibition [18]: Active
- Activity [19]: 83%
- inhibition [20]: > 60%
- Activity [21]: 0.9%
- Activity [22]: 99%
- Activity [23]: 83%
- Activity [24]: 100%
- Activity [25]: 0%
- Activity [26]: 88%
- Activity [27]: 85%
SMILES: Cc1ccc([C@H](C)Nc2ccc3c(c2)N(C2CC2)[C@H](C)C(=O)N3C)c(C)c1
